Experimental data reported in PMC3516570, “The GM2 Glycan Serves as a Functional Coreceptor for Serotype 1 Reovirus” (PLoS Pathogens, 2012).

B1: reovirus type 1 Lang (T1L) σ1, construct σ1_(long) (amino acids 261–470), GCN4 domain and His6-tag removed (domain or fragment)
chain: LESAKIDSVLPPLTVREASGVRTLSFGYDTSDFTIINSVLSLRSRLTLPTYRYPLELDTANNRVQVADRFGMRTGTWTGQLQYQHPQLSWRANVTLNLMKVDDWLVLSFSQMTTNSIMADGKFVINFVSGLSSGWQTGDTEPSSTIDPLSTTFAAVQFLNNGQRIDAFRIMGVSEWTDGELEIKNYGGTYTGHTQVYWAPWTIMYPCNVR
notes: Made as His6-GCN4(trimeric)-σ1(261–470) in pQE-80L; Crystals were soaked with GM2 or GM3 glycan; also called cleaved σ1_(long); σ1 attachment protein; not shown: His6, N-terminal, cleaved; GCN4 trimeric leucine zipper, N-terminal, cleaved

Key:
T1L σ1long = target: T1, T1L σ1long (Mammalian orthoreovirus 1 Lang, UniProt P04506); assay: X-ray crystal structure ([…] Å); also STD NMR; format: binding; conditions: crystal soak with 20 mM glycan; same site as GM2 glycan; STD NMR pH 7.4, 283 K
T1 construct: gene S1; residues 261-470, three C-terminal beta-spirals plus head; E. coli; trimeric GCN4 zipper and His6-tag removed by trypsin (kept for glycan array); trimer

[1] = target: the molecule itself; assay: crystal structure; crystals of cleaved σ1_(long) grown in 0.1 M Na cacodylate (pH 6.0–6.6), 1.2–1.5 M (NH4)2SO4 at 4°C, soaked with 20 mM GM2 or GM3 oligosaccharide; space group P3_(2)21; 3.6 Å (GM2) and 3.5 Å (GM3)

Molecule | X-ray crystal structure (3.5 Å); also STD NMR (T1L σ1long) | stoichiometry N [1]
CC(=O)N[C@H]1[C@H]([C@H](O)[C@H](O)CO)O[C@@](O[C@H]2[C@@H](O)[C@@H](CO)O[C@@H](O[C@H]3[C@H](O)[C@@H](O)C(O)O[C@@H]3CO)[C@@H]2O)(C(=O)O)C[C@@H]1O (some centres unmarked) [GM3 glycan] | 4GU4 (T1L σ1-GM3 glycan complex) | 
B1 |  | 3
